Experimental data: patent US20080139558A1, “QUINOLONES USEFUL AS INDUCIBLE NITRIC OXIDE SYNTHASE INHIBITORS” (KALYPSYS, INC., priority 2006, published 2008)

Target: T1, human iNOS (Homo sapiens, UniProt P35228)
T1 construct: expressed in transfected cells; host or cells: HEK293
Test: DAN assay of nitric oxide production (hiNOS)
Assay type: cell-based
Settings: enzyme expressed in HEK293 cells transiently transfected with human iNOS
Source text: The source of nitric oxide synthase (NOS) enzyme can be generated in several ways including induction of endogenous iNOS using cytokines and/or lipopolysaccharide (LPS) in various cell types known in the art. Alternatively, the gene encoding the enzyme can be cloned and the enzyme can be generated in cells via heterologous expression from a transient or stable expression plasmid with suitable features for protein expression as are known in the art. Enzymatic activity (nitric oxide production) is calcium independent for iNOS, while the constitutive NOS isoforms, nNOS and eNOS, become active with the addition of various cofactors added to cellular media or extract as are well known in the art. Enzymes specified in Table 1 were expressed in HEK293 cells transiently transfected with human iNOS.
A major metabolic pathway for nitric oxide is to nitrate and nitrite, which are stable metabolites within tissue culture, tissue, plasma, and urine (S Moncada, A Higgs, N Eng J Med 329, 2002 (1993)).
The level of nitrate or nitrite in the specimen can be quantified by any method known in the art which provides adequate sensitivity and reproducibility. A variety of protocols have also been described for detecting and quantifying nitrite and nitrate levels in biological fluids by ion chromatography (e.g., A Everett et al., J. Chromatogr. 706, 437 (1995); J M Monaghan et al., J. Chromatogr. 770, 143 (1997)), high-performance liquid chromatography (e.g., M Kelm et al., Cardiovasc. Res. 41, 765 (1999)), and capillary electrophoresis (MA Friedberg et al., J. Chromatogr. 781, 491 (1997)). For example, 2,3-diaminonaphthalene reacts with the nitrosonium cation that forms spontaneously from NO to form the fluorescent product 1H-naphthotriazole. Using 2,3-diaminonaphthalene (“DAN”), researchers have developed a rapid, quantitative fluorometric assay that can detect from 10 nM to 10 μM nitrite and is compatible with a multi-well microplate format. […] DAN reacts with nitrite ion and gives fluorescent naphthotriazole (MC Carré et al., Analusis 27, 835-838 (1999)). Table 1 provides the test results of various compounds of the subject invention using the DAN assay.
A specimen can be processed prior to determination of nitrate or nitrite as required by the quantification method, or in order to improve the results, or for the convenience of the investigator. For example, processing can involve centrifuging, filtering, or homogenizing the sample. If the sample is whole blood, the blood can be centrifuged to remove cells and the nitrate or nitrite assay performed on the plasma or serum fraction. If the sample is tissue, the tissue can be dispersed or homogenized by any method known in the art prior to determination of nitrate or nitrite. It may be preferable to remove cells and other debris by centrifugation or another method and to determine the nitrate or nitrite level using only the fluid portion of the sample, or the extracellular fluid fraction of the sample. The sample can also be preserved for later determination, for example by freezing of urine or plasma samples. When appropriate, additives may be introduced into the specimen to preserve or improve its characteristics for use in the nitrate or nitrite assay.
The “level” of nitrate, nitrite, or other NO-related product usually refers to the concentration (in moles per liter, micromoles per liter, or other suitable units) of nitrate or nitrite in the specimen, or in the fluid portion of the specimen. However, other units of measure can also be used to express the level of nitrate or nitrite. For example, an absolute amount (in micrograms, milligrams, nanomoles, moles, or other suitable units) can be used, particularly if the amount refers back to a constant amount (e.g., grams, kilograms, milliliters, liters, or other suitable units) of the specimens under consideration. A number of commercially available kits can be used. […]

T1 sequence (P35228 whole entry): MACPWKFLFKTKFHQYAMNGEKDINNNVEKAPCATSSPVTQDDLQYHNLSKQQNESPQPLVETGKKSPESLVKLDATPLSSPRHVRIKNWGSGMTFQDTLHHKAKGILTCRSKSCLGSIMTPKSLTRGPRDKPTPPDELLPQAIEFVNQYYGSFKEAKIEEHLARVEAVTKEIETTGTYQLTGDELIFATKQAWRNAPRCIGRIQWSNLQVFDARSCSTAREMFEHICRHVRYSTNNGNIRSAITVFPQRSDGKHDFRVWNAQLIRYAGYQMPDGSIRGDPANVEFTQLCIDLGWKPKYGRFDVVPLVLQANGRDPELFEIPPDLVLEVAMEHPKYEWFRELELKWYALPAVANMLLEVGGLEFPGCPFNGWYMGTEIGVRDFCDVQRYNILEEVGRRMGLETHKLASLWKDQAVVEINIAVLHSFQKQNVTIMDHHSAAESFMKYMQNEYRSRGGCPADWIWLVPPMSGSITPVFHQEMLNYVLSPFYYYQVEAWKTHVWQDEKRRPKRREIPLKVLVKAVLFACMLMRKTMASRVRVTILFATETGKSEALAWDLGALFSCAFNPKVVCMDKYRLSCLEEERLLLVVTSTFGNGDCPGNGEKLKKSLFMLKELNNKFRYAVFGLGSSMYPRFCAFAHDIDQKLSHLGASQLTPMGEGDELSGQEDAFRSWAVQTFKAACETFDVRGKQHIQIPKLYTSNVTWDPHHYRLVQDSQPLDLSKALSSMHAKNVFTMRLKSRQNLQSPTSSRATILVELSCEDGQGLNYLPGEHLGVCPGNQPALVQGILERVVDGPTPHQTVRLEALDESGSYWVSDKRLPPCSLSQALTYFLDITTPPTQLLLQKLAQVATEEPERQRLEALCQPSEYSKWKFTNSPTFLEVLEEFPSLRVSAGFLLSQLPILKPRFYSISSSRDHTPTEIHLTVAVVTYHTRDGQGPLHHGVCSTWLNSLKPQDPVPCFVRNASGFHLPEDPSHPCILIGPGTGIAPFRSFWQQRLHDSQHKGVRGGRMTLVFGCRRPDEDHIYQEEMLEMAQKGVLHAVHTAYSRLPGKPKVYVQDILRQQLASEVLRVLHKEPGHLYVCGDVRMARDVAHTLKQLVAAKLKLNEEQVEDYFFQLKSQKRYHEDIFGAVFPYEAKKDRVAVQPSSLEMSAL

| Compound | EC50 |
| --- | --- |
| Cc1nc(N2CCN(C)CC2)sc1C(=O)N(Cc1cc(=O)[nH]c2ccccc12)c1ccccc1 [Example 102, 4-Methyl-2-(4-methylpiperazin-1-yl)-N-((2-oxo-1,2-dihydroquinolin-4-yl)methyl)-N-phenylthiazole-5-carboxamide] | > 5 µM |
| O=C(c1cscn1)N(Cc1cc(=O)[nH]c2ccccc12)c1ccccc1 [Example 28, N-((2-Oxo-1,2-dihydroquinolin-4-yl)methyl)-N-phenylthiazole-4-carboxamide] | > 5 µM |
| O=c1cc(Cn2c(-c3cccnc3)nc3ccccc32)c2ccc(F)c(F)c2[nH]1 [Example 120, 7,8-Difluoro-4-((2-(pyridin-3-yl)-1H-benzo[d]imidazol-1-yl)methyl)quinolin-2(1H)-one] | > 5 µM |
| O=c1cc(Cn2c(-c3ccc(F)cc3)nc3ccccc32)c2ccc(F)c(F)c2[nH]1 [Example 197, 7,8-Difluoro-4-((2-(4-fluorophenyl)-1H-benzo[d]imidazol-1-yl)methyl)quinolin-2(1H)-one] | > 5 µM |
| Cc1ncsc1C(=O)N(c1cccc(Cl)c1)C(C)c1cc(=O)[nH]c2c(F)cccc12 (racemic) [Example 113, N-(3-Chlorophenyl)-N-(1-(8-fluoro-2-oxo-1,2-dihydroquinolin-4-yl)ethyl)-4-methylthiazole-5-carboxamide] | ≤ 5 µM |
| Cc1ccc2[nH]c(=O)cc(CN(C(=O)c3ccco3)c3ccccc3)c2c1 [Example 21, N-((6-Methyl-2-oxo-1,2-dihydroquinolin-4-yl)methyl)-N-phenylfuran-2-carboxamide] | ≤ 5 µM |
| O=C(c1ccoc1)N(Cc1cc(=O)[nH]c2ccccc12)c1ccccc1 [Example 26, N-((2-Oxo-1,2-dihydroquinolin-4-yl)methyl)-N-phenylfuran-3-carboxamide] | > 5 µM |
| Cc1nccn1-c1nc2ccccc2n1Cc1cc(=O)[nH]c2c(F)c(F)ccc12 [Example 208, 7,8-Difluoro-4-((2-(2-methyl-1H-imidazol-1-yl)-1H-benzo[d]imidazol-1-yl)methyl)quinolin-2(1H)-one] | ≤ 5 µM |
| O=c1cc(Cn2cnc(-c3ccccc3)c2)c2ccc(F)c(F)c2[nH]1 [Example 260, 7,8-Difluoro-4-((4-phenyl-1H-imidazol-1-yl)methyl)quinolin-2(1H)-one] | > 5 µM |

Now from value to molecule:

| EC50 | Compound |
| --- | --- |
| ≤ 5 µM | CC(C)Cc1nc2ccccc2n1Cc1cc(=O)[nH]c2c(F)c(F)ccc12 [Example 195, 7,8-Difluoro-4-((2-isobutyl-1H-benzo[d]imidazol-1-yl)methyl)quinolin-2(1H)-one] |
| ≤ 5 µM | Cc1ncsc1C(=O)N(c1cccc(Cl)c1)C(F)c1cc(=O)[nH]c2c(F)cccc12 (stereo not shown) [Example 253, N-(3-Chlorophenyl)-N-(fluoro(8-fluoro-2-oxo-1,2-dihydroquinolin-4-yl)methyl)-4-methylthiazole-5-carboxamide] |
| ≤ 5 µM | Cc1ncsc1S(=O)(=O)N(Cc1cc(=O)[nH]c2c(F)cccc12)c1cccc(Cl)c1 [Example 42, N-(3-Chlorophenyl)-N-((8-fluoro-2-oxo-1,2-dihydroquinolin-4-yl)methyl)-4-methylthiazole-5-sulfonamide] |
| ≤ 5 µM | CC(C)CCc1nc2ccccc2n1Cc1cc(=O)[nH]c2c(F)c(F)ccc12 [Example 211, 7,8-Difluoro-4-((2-isopentyl-1H-benzo[d]imidazol-1-yl)methyl)quinolin-2(1H)-one] |
| ≤ 5 µM | Cc1ncsc1C(=O)N(Cc1cc(=O)[nH]c2c(F)c(F)ccc12)c1cccnc1 [Example 263, N-((7,8-Difluoro-2-oxo-1,2-dihydroquinolin-4-yl)methyl)-4-methyl-N-(pyridin-3-yl)thiazole-5-carboxamide] |
| ≤ 5 µM | O=c1cc(Cn2c(-c3cncs3)nc3ccccc32)c2ccc(F)c(F)c2[nH]1 [Example 191, 7,8-Difluoro-4-((2-(thiazol-5-yl)-1H-benzo[d]imidazol-1-yl)methyl)quinolin-2(1H)-one] |
| ≤ 5 µM | CN(Cc1cc(=O)[nH]c2ccccc12)C(=O)c1ccco1 [Example 8, N-Methyl-N-[(2-oxo-1,2-dihydroquinolin-4-yl)methyl]-2-furamide] |
